Test results reported in patent US20240158756A1, “FEEDER-BASED AND FEEDER-FREE STEM CELL CULTURE SYSTEMS FOR STRATIFIED EPITHELIAL STEM CELLS, AND USES RELATED THERETO” (University of Houston System, priority 2019, published 2024).

Assays:
[1] = tested on: epithelial stem cells derived from human tissues or other mammals; assay: Feeder-free epithelial stem cell culture; format: cell-based
Excerpt: (§1) Another illustrative system is a medium referred to as SGM-63+. The SGM-63+ medium has been tested and proven to support robust growth of epithelial stem cells derived from human tissues or other mammals in the absence of the irradiate feeder of mouse fibroblast cells (3T3-J2). For example, lung stem cells, esophagus stem cell, bladder stem cells and ovarian cancer stem cells, can all grow robustly in this culture system that comprises SGM-63+ medium without the need of irradiated 3T3-J2 feeders in the illustrated example.
(§2) The base medium comprises DMEM, F12, FBS, L-glutamine, Adenine, Pen/Strep, Insulin, T3, Hydrocortisone, EGF and is further added a Rock inhibitor, TGF-beta inhibitor, BMP4 inhibitor, VEGF inhibitor, TrkA inhibitor, Ponatinib, CK2 inhibitor, Syk inhibitor, LPA Receptor antagonist, Oct 4-activating compound 1, GSK3 inhibitor and FGF10. […] R-spondin was found not required to support the self-renewal and multipotency of stratified epithelial stem cells.

[2] = tested on: epithelial stem cells derived from human tissues or other mammals; assay: Epithelial stem cell culture on irradiated 3T3-J2 feeder; settings: feeder-based medium
Excerpt: as §1, with “An” for “Another”, “SQM.” for “SGM-63+.”, “SQM” for “SGM-63+”, “presence” for “absence”, “SQM medium, along with” for “SGM-63+ medium without the need of”
as §2, with “Ponatinib” for “Ponatinib, CK2 inhibitor, Syk inhibitor, LPA Receptor antagonist, Oct 4-activating compound 1, GSK3 inhibitor”

ALK5 (TGF-β RI) = target: T1, ALK5 (TGF-β RI) (Homo sapiens, UniProt P36897); settings: high concentrations, approximate; cited from earlier work
T1 sequence (P36897 34-503): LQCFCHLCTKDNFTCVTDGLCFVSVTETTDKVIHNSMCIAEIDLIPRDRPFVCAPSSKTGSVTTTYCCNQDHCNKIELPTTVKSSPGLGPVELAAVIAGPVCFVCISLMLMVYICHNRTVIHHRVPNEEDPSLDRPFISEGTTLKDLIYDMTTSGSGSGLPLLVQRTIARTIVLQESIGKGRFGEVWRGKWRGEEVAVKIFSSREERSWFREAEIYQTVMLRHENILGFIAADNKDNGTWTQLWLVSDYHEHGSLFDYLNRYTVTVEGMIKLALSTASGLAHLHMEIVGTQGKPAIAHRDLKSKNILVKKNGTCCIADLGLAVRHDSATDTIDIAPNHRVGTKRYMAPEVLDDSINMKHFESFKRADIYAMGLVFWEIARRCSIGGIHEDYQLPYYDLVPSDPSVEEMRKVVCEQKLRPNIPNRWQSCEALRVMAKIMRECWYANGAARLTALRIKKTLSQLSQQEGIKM

Row | Compound | effect of inclusion in the medium on epithelial stem cell self-renewal [1] | effect of inclusion in the medium on epithelial stem cell self-renewal [2] | concentration at which ALK5 may be inhibited (ALK5 (TGF-β RI))
1 | NC(=O)c1cccnc1 [nicotinamide] | induce the abortion of some epithelial stem cell (lung, esophagus etc) self-renewal | induce the abortion of some epithelial stem cell (lung, esophagus etc) self-renewal | 
2 | 4-[5-(4-Fluorophenyl)-2-[4-(methylsulfonyl)phenyl]-1H-imidazol-4-yl]pyridine [SB-203580] |  |  | ≥ 10 µM
3 | jagged1: Notch agonist, surface-bound or secreted Notch ligand | induce the abortion of some epithelial stem cell (lung, esophagus etc) self-renewal | induce the abortion of some epithelial stem cell (lung, esophagus etc) self-renewal | 
